This note sets out measurements from US20200061062A1, “INHIBITORS OF HUMAN PHOSPHATIDYLINOSITOL 3-KINASE DELTA” (ICOS Corporation, priority 2000, published 2020).

Data set [1] addresses T1, PI3Kα (Homo sapiens, UniProt P42336).
T1 construct: His tag (pFastbac HTb vector) (N); FLAG; made in house; host or cells: Sf21 insect cells (baculovirus)
Briefly: Biochemical assay of PI3K potency and selectivity using 20 μM ATP, Alpha. The conditions noted are these: for Alpha/Delta Ratio / IC50: 20 μM ATP; for Alpha/Delta Ratio: ratio of IC50 values, > = hypothetical ratio with 100 μM substituted for the missing IC50; for IC50: read-out: Alpha IC50. The text has this: (§1) Recombinant PI3K heterodimeric complexes consisting of a p110 catalytic subunit and a p85 regulatory subunit were overexpressed using the BAC-TO-BAC® HT baculovirus expression system (GIBCO/BRL), and then purified for use in biochemical assays. The four Class I PI 3-kinases were cloned into baculovirus vectors as follows: […]

For data set [2], the target named is T2, PI3Kβ (Homo sapiens, UniProt P42338).
T2 construct: His tag (pFastbac HTa vector) (N); FLAG (N); made in house; host or cells: Sf21 insect cells (baculovirus)
T2 sequence (P42338 whole entry): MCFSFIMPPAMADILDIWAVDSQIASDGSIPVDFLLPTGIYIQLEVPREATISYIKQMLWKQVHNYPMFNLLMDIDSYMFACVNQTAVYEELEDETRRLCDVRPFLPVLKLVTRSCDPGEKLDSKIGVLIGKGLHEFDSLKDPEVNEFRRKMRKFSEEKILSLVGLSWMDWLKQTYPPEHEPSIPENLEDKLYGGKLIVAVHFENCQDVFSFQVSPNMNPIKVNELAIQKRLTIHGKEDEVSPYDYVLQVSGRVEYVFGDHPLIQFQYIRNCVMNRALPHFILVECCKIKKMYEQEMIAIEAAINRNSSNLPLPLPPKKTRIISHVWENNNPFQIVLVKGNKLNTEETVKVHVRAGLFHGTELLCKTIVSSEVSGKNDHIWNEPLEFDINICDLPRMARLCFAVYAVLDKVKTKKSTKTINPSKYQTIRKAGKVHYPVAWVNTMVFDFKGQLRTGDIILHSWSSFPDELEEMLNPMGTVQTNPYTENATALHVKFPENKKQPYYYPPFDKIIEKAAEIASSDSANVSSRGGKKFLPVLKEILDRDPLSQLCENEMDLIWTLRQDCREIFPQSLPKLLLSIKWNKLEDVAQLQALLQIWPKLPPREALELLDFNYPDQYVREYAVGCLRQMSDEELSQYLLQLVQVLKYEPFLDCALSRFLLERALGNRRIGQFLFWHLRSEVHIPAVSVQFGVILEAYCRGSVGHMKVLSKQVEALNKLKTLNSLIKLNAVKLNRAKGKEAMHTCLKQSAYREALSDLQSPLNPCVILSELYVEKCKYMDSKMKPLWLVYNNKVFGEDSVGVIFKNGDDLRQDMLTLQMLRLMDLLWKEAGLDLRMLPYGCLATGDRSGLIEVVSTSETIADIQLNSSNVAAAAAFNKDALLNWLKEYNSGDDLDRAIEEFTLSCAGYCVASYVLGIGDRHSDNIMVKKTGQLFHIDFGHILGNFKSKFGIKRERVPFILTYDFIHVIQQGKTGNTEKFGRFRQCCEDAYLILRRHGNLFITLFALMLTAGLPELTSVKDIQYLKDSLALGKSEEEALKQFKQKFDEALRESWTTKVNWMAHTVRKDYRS
T2 sequence (P27986 whole entry partner): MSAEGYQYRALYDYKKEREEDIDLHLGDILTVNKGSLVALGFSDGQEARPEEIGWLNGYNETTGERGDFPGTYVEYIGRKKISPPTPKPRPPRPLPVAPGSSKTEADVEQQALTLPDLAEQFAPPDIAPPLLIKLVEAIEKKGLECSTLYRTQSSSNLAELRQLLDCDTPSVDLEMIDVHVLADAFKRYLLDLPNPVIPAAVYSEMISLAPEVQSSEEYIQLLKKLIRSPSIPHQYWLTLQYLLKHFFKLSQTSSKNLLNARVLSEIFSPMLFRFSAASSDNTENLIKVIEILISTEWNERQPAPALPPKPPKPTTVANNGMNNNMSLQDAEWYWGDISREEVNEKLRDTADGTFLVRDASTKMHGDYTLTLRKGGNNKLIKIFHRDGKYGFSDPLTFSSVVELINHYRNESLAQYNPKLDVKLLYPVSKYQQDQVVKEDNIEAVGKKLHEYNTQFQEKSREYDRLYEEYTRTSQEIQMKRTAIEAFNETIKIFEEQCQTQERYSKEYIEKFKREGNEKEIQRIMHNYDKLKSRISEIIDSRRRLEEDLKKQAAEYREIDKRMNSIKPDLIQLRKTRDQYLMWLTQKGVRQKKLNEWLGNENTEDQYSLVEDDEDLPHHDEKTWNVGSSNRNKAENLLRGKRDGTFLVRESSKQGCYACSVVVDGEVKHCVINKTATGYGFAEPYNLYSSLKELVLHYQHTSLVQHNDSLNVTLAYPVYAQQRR
Nature of the data set: Biochemical assay of PI3K potency and selectivity using 20 μM ATP, Beta. The following applies: 20 μM ATP; for Beta/Delta Ratio: ratio of IC50 values, > = hypothetical ratio with 100 μM substituted for the missing IC50; for IC50: read-out: Beta IC50. On the procedure: Recombinant PI3K heterodimeric complexes consisting of a p110 catalytic subunit and a p85 regulatory subunit were overexpressed using the BAC-TO-BAC® HT baculovirus expression system (GIBCO/BRL), and then purified for use in biochemical assays. The four Class I PI 3-kinases were cloned into baculovirus vectors as follows:
The 3× substrate for the HTS contained 0.6 mM Na2ATP, 0.10 mCi/mL γ-[^32P]ATP (NEN, Pittsburgh, Pa.), 6 μM PIP2/PS liposomes (Avanti Polar Lipids, Inc., […].), in 20 mM HEPES, pH 7.4.

Data set [3] concerns the target T3, PI3Kγ (Homo sapiens, UniProt P48736).
T3 construct: His tag (pFastbac HTb vector) (N); FLAG (N); made in house; host or cells: Sf21 insect cells (baculovirus)
Briefly: Biochemical assay of PI3K potency and selectivity using 20 μM ATP, Gamma. The following applies: for Gamma/Delta Ratio: ratio of IC50 values. The text has this:
Recombinant baculoviruses containing the above clones were generated using manufacturer's recommended protocol (Life Technologies). Baculoviruses expressing His-tagged p110α, p110γ, or p110δ catalytic subunit and p85 subunit were coinfected into Sf21 insect cells. To enrich the heterodimeric enzyme complex, an excess amount of baculovirus expressing p85 subunit was infected, and the His-tagged p110 catalytic subunit complexed with p85 was purified on nickel affinity column. […] In an alternate approach, p101 can be cloned into baculovirus, to permit coexpression with its preferred binding partner p110γ. […]

Data set [4] has as its target T1, PI3Kα. Nature of the data set: Biochemical assay using 200 μM ATP, Alpha.
Protocol: (§3) PI3Kδ catalyzes a phosphotransfer from γ-[^32P]ATP to PIP2/PS liposomes at the D3′ position of the PIP2 lipid inositol ring. This reaction is MgCl2 dependent and is quenched in high molarity potassium phosphate buffer pH 8.0 containing 30 mM EDTA. […] The reaction products (and all unlabelled products) are transferred to a 96-well, prewetted PVDF filter plate, filtered, and washed in high molarity potassium phosphate. Scintillant is added to the dried wells and the incorporated radioactivity is quantitated.
(§4) This dilution established a final concentration of 200 μM ATP in the reaction volume. The reaction was stopped with 150 μL quench buffer (1.0 M potassium phosphate pH 8.0, 30 mM EDTA). A portion of the quenched solution (180 μL) was then transferred to a PVDF filter plate (Millipore # MAIP NOB prewetted with sequential 200 μL washes of 100% methanol, water, and finally 1.0 M potassium phosphate pH 8.0 wash buffer).
(§5) The PVDF filter plate was aspirated under moderate vacuum (2-5 mm Hg), washed with 5×200 μL of wash buffer, and then dried by aspiration. The filter was subsequently blotted, allowed to air dry completely, and inserted into a Wallac counting cassette with 50 μL of Ecoscint scintillation cocktail added per well.
(§6) Subsequent selectivity assays were done similarly using the same 3× substrate stocks except they contained 0.05 mCi/mL γ[^32P]ATP and 3 mM PIP2. Subsequent selectivity assays also used the same 3× enzyme stocks, except they now contained 3 nM of any given PI3K isoform.
(§7) For all selectivity assays, the test compounds were weighed out and dissolved into 10-50 mM stocks in 100% DMSO (depending on their respective solubilities) and stored at −20° C. […] From these dilutions, 20 μL was added into the assay wells alongside water blanks used for the enzyme (positive) control and the no enzyme (background) control.
(§8) This selectivity protocol is identical to that described above, except the 3× stock ATP concentration was 600 μM.
The target of data set [5] is T2, PI3Kβ. Nature of the data set: Biochemical assay using 200 μM ATP, Beta.
Protocol: as §3, §4, §5, §6, §7, §8
Data set [6] concerns the target T3, PI3Kγ. Briefly: Biochemical assay using 200 μM ATP, Gamma.
Protocol: as §3, §4, §5, §6, §7, §8
A further data set has as its system human neutrophils. Briefly: Elastase exocytosis from neutrophils (fMLP-induced). Format: cell-based. The following applies: neutrophil (PMN) elastase release. Here is the method:
Aliquots (8 mL) of heparinized blood from healthy volunteers were layered on 3 mL cushions of 7.3% FICOLL® (Sigma, St. Louis, Mo.) and 15.4% HYPAQUE® (Sigma) and centrifuged at 900 rpm for 30 min at room temperature in a table top centrifuge (Beckman). The neutrophil-rich band just above the FICOLL®-HYPAQUE® cushion was collected and washed with Hanks' balanced salt solution (HBSS) containing 0.1% gelatin. Residual erythrocytes were removed by hypotonic lysis with 0.2% NaCl. The neutrophil preparation was washed twice with HBSS containing 0.1% gelatin and used immediately.
In addition to superoxide generation, activated neutrophils also respond by releasing several proteases that are responsible for the destruction of tissues and cartilage during inflammation. As an indication of protease release, the effect of D-000 on elastase exocytosis was measured. Elastase exocytosis was quantitated by modification of the procedure described by Ossanna et al. (J Clin Invest, 77:1939-1951 (1986)), as follows. Purified human neutrophils (0.2×10^6) (treated with either DMSO or a serial dilution of D-000 in DMSO) were stimulated with fMLP in PBS containing 0.01 mg/mL cytochalasin B, 1.0 μM sodium azide (NaN3), 5 μg/mL L-methionine and 1 μM fMLP for 90 min at 37° C. in a 96-well plate. At the end of the incubation period, the plate was centrifuged for 5 min at 1000 rpm, and 90 μL of the supernatant was transferred to 10 μL of 10 mM solution of an elastase substrate peptide, MeO-suc-Ala-Ala-Pro-Val-pNA, wherein MeO-suc=methoxy-succinyl; pNA=p-nitroanilide (Calbiochem, San Diego, Calif.). Absorbance at 410 nm was monitored for 2 hr in a 96-well plate reader. To measure the relative amounts of elastase excytosed, all absorbance values were normalized to the values without any inhibitor. […] Inhibition was half-maximal at a concentration of about 2-3 μM D-000.
(§2) Using the methods described in Examples 3-5, above, compounds of the invention were tested for inhibitory activity and potency in assays of stimulated B and T cell proliferation, neutrophil (PMN) migration, and neutrophil (PMN) elastase release. In Table 4, the values shown are effective concentrations of the compound (EC50; μM). Where no value is given, no assay was performed.

Data set [7] concerns Murine splenocytes (Balb/c). Briefly: B cell proliferation in response to cell surface IgM stimulation. It counts as cell-based. The conditions noted are these: Mus musculus, Splenocyte; stimulated B cell proliferation; read-out: Mouse BCR Stim (EC50). Here is the method: In the above experiment, the B cells were stimulated using PANSORBIN®. The effect of D-000 on B cell proliferation response when they were stimulated through their cell surface IgM using anti-IgM antibody also was measured. Murine splenocytes (Balb/c) were plated into 96-well microtiter plates at 2×10^5 cells per well in 10% FBS/RPMI. Appropriate dilutions of test inhibitor in complete medium were added to the cells and the plates were incubated for 30-60 minutes prior to the addition of stimulus. Following the preincubation with test inhibitor an F(ab′)2 preparation of goat antibody specific for the μ-chain of mouse IgM was added to the wells at a final concentration of 25 μg/mL. The plates were incubated at 37° C. for 3 days and 1 μCi of [^3H]-thymidine was added to each well for the final four hours of culture. The plates were harvested onto fiber filters washed and the incorporation of radiolabel was determined using a beta counter (Matrix 96, Packard Instrument Co., Downers Grove, Ill.) and expressed as counts per minute (CPM).
as §2

For data set [8], the target named is T4, PI3Kδ (Homo sapiens, UniProt O00329, S253N). Nature of the data set: Biochemical assay using 200 μM ATP, Delta.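 Further: radiometric filter-binding assay: PI3Kδ transfers ³²P from γ-[³²P]ATP onto PIP2/PS liposomes, counted by scintillation, enzyme-only wells as positive control, no-enzyme wells as background.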
T4 sequence (O00329 whole entry S253N): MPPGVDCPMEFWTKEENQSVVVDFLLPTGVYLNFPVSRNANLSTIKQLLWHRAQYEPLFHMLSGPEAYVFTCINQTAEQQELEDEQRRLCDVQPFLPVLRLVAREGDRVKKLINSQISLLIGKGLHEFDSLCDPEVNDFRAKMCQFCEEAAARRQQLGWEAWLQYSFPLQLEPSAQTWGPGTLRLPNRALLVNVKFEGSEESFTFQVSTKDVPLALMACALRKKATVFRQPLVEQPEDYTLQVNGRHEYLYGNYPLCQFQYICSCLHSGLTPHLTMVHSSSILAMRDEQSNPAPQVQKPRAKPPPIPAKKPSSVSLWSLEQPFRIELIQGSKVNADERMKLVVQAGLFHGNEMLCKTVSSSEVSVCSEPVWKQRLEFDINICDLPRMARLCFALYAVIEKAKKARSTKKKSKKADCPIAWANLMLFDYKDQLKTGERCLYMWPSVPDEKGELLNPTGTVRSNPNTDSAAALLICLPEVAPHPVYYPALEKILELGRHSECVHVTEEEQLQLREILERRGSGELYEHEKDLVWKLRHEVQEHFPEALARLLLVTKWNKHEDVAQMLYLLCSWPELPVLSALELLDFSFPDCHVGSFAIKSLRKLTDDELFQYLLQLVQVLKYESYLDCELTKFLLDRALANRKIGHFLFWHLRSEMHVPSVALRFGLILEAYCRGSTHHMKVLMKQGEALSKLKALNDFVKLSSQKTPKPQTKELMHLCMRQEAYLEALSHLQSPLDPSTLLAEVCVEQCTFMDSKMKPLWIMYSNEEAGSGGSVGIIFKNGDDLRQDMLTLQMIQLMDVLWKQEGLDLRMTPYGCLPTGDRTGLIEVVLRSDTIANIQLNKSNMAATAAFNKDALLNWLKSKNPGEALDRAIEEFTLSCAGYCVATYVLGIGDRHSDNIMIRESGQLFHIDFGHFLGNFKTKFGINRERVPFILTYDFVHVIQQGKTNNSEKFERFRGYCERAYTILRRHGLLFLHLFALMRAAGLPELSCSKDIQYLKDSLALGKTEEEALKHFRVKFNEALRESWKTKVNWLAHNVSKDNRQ
T4 sequence (P27986 whole entry partner): as the sequence (P27986 whole entry partner) above
In data set [9] the target is T4, PI3Kδ. Briefly: Biochemical assay of PI3K potency and selectivity using 20 μM ATP, Delta. Details: His tag (pFastbac HTb vector) (N); FLAG; made in house; host or cells: Sf21 insect cells (baculovirus). The following applies: 20 μM ATP; read-out: Delta IC50.
Source text: as §1

The mark [10] stands for this setting: read-out: percent activity remaining at 100 μM, 20 μM ATP, 100 μM compound did not inhibit by at least 50%.

Where two headings read alike, the source gives them in different places.

T3 sequence (P48736 whole entry): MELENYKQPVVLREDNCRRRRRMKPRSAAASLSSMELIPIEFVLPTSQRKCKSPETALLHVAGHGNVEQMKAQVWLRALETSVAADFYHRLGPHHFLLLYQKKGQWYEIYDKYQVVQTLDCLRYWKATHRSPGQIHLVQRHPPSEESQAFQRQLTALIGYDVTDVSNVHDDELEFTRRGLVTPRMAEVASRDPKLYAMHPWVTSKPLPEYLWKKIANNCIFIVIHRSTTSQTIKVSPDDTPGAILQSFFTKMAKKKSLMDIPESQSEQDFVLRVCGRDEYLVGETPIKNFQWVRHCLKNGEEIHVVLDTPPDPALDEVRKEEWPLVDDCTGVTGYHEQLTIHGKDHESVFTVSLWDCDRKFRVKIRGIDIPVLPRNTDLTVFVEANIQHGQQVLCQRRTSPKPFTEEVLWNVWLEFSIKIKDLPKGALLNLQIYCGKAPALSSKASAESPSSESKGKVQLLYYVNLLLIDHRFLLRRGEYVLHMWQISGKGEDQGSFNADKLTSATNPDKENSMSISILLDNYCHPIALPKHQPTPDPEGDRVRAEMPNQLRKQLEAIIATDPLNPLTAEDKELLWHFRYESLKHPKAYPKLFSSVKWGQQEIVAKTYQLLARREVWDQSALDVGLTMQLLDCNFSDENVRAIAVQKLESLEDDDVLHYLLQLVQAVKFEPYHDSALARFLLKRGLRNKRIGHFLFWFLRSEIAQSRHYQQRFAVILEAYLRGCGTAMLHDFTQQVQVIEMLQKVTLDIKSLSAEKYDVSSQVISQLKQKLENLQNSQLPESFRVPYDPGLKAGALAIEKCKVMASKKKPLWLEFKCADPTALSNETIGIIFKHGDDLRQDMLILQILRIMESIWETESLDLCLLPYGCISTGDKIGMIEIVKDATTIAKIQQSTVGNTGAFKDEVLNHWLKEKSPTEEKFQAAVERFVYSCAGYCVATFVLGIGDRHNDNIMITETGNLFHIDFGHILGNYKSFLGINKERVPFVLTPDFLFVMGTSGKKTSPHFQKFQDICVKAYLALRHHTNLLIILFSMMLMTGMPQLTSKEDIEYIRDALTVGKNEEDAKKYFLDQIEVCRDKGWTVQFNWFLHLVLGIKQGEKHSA
T1 sequence (P42336 whole entry): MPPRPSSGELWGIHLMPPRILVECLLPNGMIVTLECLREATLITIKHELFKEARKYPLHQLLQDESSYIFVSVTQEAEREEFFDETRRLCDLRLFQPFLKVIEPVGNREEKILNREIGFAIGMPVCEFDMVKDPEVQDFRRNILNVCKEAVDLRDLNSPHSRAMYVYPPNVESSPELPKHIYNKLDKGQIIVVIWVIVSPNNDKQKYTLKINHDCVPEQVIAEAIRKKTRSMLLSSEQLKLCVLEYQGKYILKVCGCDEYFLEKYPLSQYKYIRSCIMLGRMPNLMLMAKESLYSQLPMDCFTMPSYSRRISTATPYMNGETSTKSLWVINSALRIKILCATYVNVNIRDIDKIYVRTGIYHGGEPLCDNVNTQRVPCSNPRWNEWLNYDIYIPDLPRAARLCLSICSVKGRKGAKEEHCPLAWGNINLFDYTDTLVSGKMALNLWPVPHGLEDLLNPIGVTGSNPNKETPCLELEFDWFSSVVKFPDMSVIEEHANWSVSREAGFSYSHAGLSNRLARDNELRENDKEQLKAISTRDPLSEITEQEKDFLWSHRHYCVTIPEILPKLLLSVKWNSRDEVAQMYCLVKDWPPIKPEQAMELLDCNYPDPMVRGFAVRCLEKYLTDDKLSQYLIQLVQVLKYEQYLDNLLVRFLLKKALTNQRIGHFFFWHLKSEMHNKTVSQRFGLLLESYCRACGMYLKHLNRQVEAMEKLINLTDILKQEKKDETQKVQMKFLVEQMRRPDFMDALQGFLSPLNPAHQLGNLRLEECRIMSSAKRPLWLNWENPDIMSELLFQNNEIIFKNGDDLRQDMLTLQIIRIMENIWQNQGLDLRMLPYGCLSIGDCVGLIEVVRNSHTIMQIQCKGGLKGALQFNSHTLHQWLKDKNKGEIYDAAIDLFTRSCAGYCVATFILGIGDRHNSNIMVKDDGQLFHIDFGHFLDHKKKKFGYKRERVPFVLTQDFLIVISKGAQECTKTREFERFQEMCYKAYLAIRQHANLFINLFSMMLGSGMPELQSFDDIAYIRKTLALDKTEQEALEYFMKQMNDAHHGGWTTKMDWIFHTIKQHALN
T1 sequence (P27986 whole entry partner): as the sequence (P27986 whole entry partner) above

As for `Cc1ccccc1-n1c(CSc2ncnc3[nH]cnc23)nc2cccc(Cl)c2c1=O` [Compound D-010, 5-Chloro-2-(9H-purin-6-ylsulfanylmethyl)-3-o-tolyl-3H-quinazolin-4-one], the melting point (commonly the temperature of the solid-liquid transition) stood at 213.9 °C. At PI3Kα [1], the “Alpha/Delta Ratio” value was 800 and the IC50 was 48000 nM. Moreover, at PI3Kβ [2], the “Beta/Delta Ratio” value is 183 and the IC50 worked out at 11000 nM. Moreover, on PI3Kγ [3], the IC50 is 700 nM and the “Gamma/Delta Ratio” value came to 12. Also, the “Alpha/Delta Ratio” value at PI3Kα [4] worked out at 658. On PI3Kβ [5], the “Beta/Delta Ratio” value turned out to be 144 and the IC50 amounted to 33000 ± 4000 nM. Also, at PI3Kγ [6], the “Gamma/Delta Ratio” value came to 27 and the IC50 amounted to 6000 ± 3000 nM. Further, in the data set with human neutrophils, the EC50 – broadly, the concentration needed to bring the measured effect to its halfway point – was 300 ± 300 nM. The EC50 in [7] is 200 ± 100 nM. For the same compound, on PI3Kδ [8], the IC50 is 230 ± 200 nM. In addition, at PI3Kδ [9], the IC50 was 60 nM.
Regarding `COc1ccccc1-n1c(CSc2ncnc3[nH]cnc23)nc2cccc(C)c2c1=O` [Compound D-047, 3-(2-methoxyphenyl)-5-methyl-2-(9H-purin-6-ylsulfanylmethyl)-3H-quinazolin-4-one], the “Alpha/Delta Ratio” value on PI3Kα [1] amounted to 333; on PI3Kα [4] it was 810. Further, the IC50 on PI3Kα [1] worked out at 30000 nM; at PI3Kβ [2], 9000 nM; at PI3Kγ [3], 500 nM; at PI3Kβ [5], 30000 nM; against PI3Kγ [6], 4500 nM; against PI3Kδ [8], 200 nM. Also, the IC50 on PI3Kδ [9] was determined as 90 nM. The results for the “Beta/Delta Ratio” value on PI3Kβ [2] and at PI3Kβ [5] were 100 and 150, respectively. Besides, the “Gamma/Delta Ratio” value is recorded as 5.6 on PI3Kγ [3] and 23 at PI3Kγ [6]. Further, the EC50 in the data set with human neutrophils came to 500 ± 200 nM; in data set [7] it was 300 nM.
As to `O=c1c2cc(F)c(F)cc2nc(CSc2ncnc3[nH]cnc23)n1-c1ccccc1Cl` [Compound D-027, 3-(2-Chlorophenyl)-6,7-difluoro-2-(9H-purin-6-ylsulfanylmethyl)-3H-quinazolin-4-one], the melting point amounted to 207.8 °C. Moreover, at PI3Kα [1], the “Alpha/Delta Ratio” value is >169. Further, the remaining activity (as a rule, the activity still measured, relative to the control) at 100 µM at PI3Kα [1] (setting [10]) is 59%. Also, on PI3Kβ [2], the “Beta/Delta Ratio” value is on record as 97 and the IC50 is 58000 nM. In addition, the “Alpha/Delta Ratio” value on PI3Kα [4] amounted to 37. On PI3Kβ [5], the “Beta/Delta Ratio” value was 26 and the IC50 was 110000 nM. Besides, on PI3Kγ [6], the “Gamma/Delta Ratio” value is reported as 15 and the IC50 amounted to 60000 nM. The compound further came in with an EC50 in the data set on human neutrophils of 2000 nM. In addition, the EC50 in data set [7] is > 2000 nM. In addition, the IC50 at PI3Kδ [8] is 4000 nM. The IC50 at PI3Kδ [9] amounted to 600 nM.
Regarding `CC(=O)O.O=c1c2ccccc2nc(CSc2ncnc3[nH]cnc23)n1N1CCOCC1` [Compound D-039, 3-morpholin-4-yl-2-(9H-purin-6-ylsulfanylmethyl)-3H-quinazolin-4-one, acetate salt], the “Alpha/Delta Ratio” value at PI3Kα [1] is reported as >111; at PI3Kα [4], 65. Moreover, the remaining activity at 100 µM worked out at 77% at PI3Kα [1] (read-out: percent activity remaining at 100 μM) and 66% on PI3Kβ [2] (read-out: Beta: percent activity remaining at 100 μM, 100 μM compound did not inhibit by at least 50%). In addition, the “Beta/Delta Ratio” value on PI3Kβ [2] was >111; on PI3Kβ [5], 50. Moreover, the IC50 on PI3Kγ [3] is 38000 nM; on PI3Kδ [8] it was 2600 nM; at PI3Kδ [9] it was 900 nM. Moreover, the “Gamma/Delta Ratio” value at PI3Kγ [3] turned out to be 42; on PI3Kγ [6], 44. For the same compound, the EC50 with human neutrophils amounted to 5000 nM; in [7], 900 ± 100 nM.
As to `O=c1c2c(Cl)cccc2nc(CSc2ncnc3[nH]cnc23)n1-c1ccccc1-c1ccccc1` [Compound D-013, 3-Biphenyl-2-yl-5-chloro-2-(9H-purin-6-ylsulfanylmethyl)-3H-quinazolin-4-one], the melting point was 222 to 222.5 °C (dec.). Further, the “Alpha/Delta Ratio” value on PI3Kα [1] is recorded as >2,000. Further, on PI3Kα [1] (setting [10]), the remaining activity at 100 µM was determined as 71%. In addition, at PI3Kβ [2], the “Beta/Delta Ratio” value came out at 260 and the IC50 stood at 13000 nM. Also, at PI3Kγ [3], the IC50 came to 2100 nM and the “Gamma/Delta Ratio” value turned out to be 42. Further, the “Alpha/Delta Ratio” value at PI3Kα [4] was 461. The “Beta/Delta Ratio” value on PI3Kβ [5] was determined as 289. At PI3Kγ [6], the “Gamma/Delta Ratio” value was found to be 24 and the IC50 was 12000 ± 1000 nM. Also, the EC50 in [7] amounted to 1400 nM. The compound further showed an IC50 at PI3Kδ [8] of 510 ± 600 nM. At PI3Kδ [9], the IC50 came to 50 nM.
As to `O=c1c2cc(F)ccc2nc(CSc2ncnc3[nH]cnc23)n1-c1ccccc1Cl` [Compound D-028, 3-(2-Chlorophenyl)-6-fluoro-2-(9H-purin-6-ylsulfanylmethyl)-3H-quinazolin-4-one], the melting point lay in the range of 232.8 to 233 °C. Besides, the “Alpha/Delta Ratio” value on PI3Kα [1] is recorded as >556. In addition, on PI3Kα [1] (setting [10]), the remaining activity at 100 µM is 67%. Moreover, on PI3Kβ [2], the “Beta/Delta Ratio” value is given as 69 and the IC50 is 13000 nM. The “Alpha/Delta Ratio” value on PI3Kα [4] is recorded as 125. Moreover, the “Beta/Delta Ratio” value on PI3Kβ [5] is 101. Further, on PI3Kγ [6], the “Gamma/Delta Ratio” value is 18 and the IC50 is 29000 nM. In the data set with human neutrophils, the EC50 was 1000 nM. In addition, the EC50 in [7] amounted to 400 ± 200 nM. At PI3Kδ [8], this compound gave an IC50 of 1600 nM. Moreover, the IC50 on PI3Kδ [9] is 180 nM.
